Measured values as given in patent US9890185B2, “Urea derivatives useful as kinase inhibitors” (Respivert Limited, priority 2013, dated 2018).

Experiments:
[1] = target: p38 MAPKα isoform (MAPK14) (Homo sapiens (Human), UniProt Q16539); assay: p38 MAPKα enzyme inhibition (FRET, Z-LYTE, Method 2); format: biochemical
Procedure, shortened: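 Z-LYTE FRET: p38 MAPKα (80 ng/mL for Method 1, 200 ng/mL for Method 2, pre-dilution) preincubated 2 hr RT with compound (4–0.004 μg/mL solutions), activity read via MAPKAP-K2 phosphorylation after 1 hr RT and 1 hr protease development. Coumarin/fluorescein ratio gives phosphorylation; % inhibition versus uninhibited control, IC50 from concentration-response curve.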

c-Src = c-Src (Homo sapiens (Human), UniProt P12931); assay: c-Src enzyme inhibition (FRET, Z-LYTE); format: biochemical
Procedure, shortened: (§1)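 First, compound and enzyme incubate 2 hr at room temperature. Next, FRET peptide (8 μM added solution) and ATP go in for 1 hr, using an 800 μM solution for c-Src and 60 μM for Syk. Finally protease develops for 1 hr; IC50 is fitted to inhibition versus concentration.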

Syk = Syk (Homo sapiens (Human), UniProt P43405); assay: Syk enzyme inhibition (FRET, Z-LYTE); format: biochemical
Procedure, shortened: as §1

GSK 3α = GSK 3α (Homo sapiens (Human), UniProt P49840); assay: GSK 3α enzyme inhibition (FRET, Z-LYTE, Method 2); format: biochemical; conditions: read-out: IC50 Values for Enzyme Inhibition, GSK3α
Procedure, shortened: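 Recombinant human GSK3α was preincubated with compound (stocks 4, 0.4, 0.04 or 0.004 μg/mL) at RT, 2 hr for Method 1 and 105 min for Method 2. FRET peptide (8 μM stock) and ATP (40 μM stock) were added for 1 hr, then protease development for 1 hr. IC50 was taken from concentration–response curves.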

PBMCs [2] = assay: IL-2 release in CD3/CD28 stimulated PBMC cells (assay c); format: cell-based; conditions: Homo sapiens, read-out: IC50 Values for Inhibition of Cytokine Release, PBMCs IL-2
Procedure, shortened: (§2)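 Healthy-donor PBMCs, isolated by density gradient, were plated in wells pre-coated with anti-CD3 (0.3 μg/mL) and anti-CD28 (3 μg/mL) antibodies, then exposed to compound for 3 days under normal culture conditions. IL-2 and IFN gamma in supernatants were measured by sandwich ELISA; IC50 taken from the dose-response curve.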

PBMCs [3] = assay: IFN gamma release in CD3/CD28 stimulated PBMC cells (assay c); format: cell-based; conditions: Homo sapiens, read-out: IC50 Values for Inhibition of Cytokine Release, PBMCs IFNγ
Procedure, shortened: as §2

d-U937 cells = assay: Accumulation of β catenin in d-U937 cells (assay m); format: cell-based, human; conditions: percentage relative to Reference Compound at 1 μg/mL
Procedure, shortened: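 Read-out: colourimetric cell-based immunoassay for endogenous β-catenin (OD450 minus 655 reference), normalised to crystal violet absorbance at 595 nm. Test compound or vehicle was applied for 18 hr to U937 monocytes first differentiated with PMA (100 ng/mL) for 48–72 hr.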

p38 MAPKα isoform (MAPK14), sequence (Q16539 whole entry, canonical isoform): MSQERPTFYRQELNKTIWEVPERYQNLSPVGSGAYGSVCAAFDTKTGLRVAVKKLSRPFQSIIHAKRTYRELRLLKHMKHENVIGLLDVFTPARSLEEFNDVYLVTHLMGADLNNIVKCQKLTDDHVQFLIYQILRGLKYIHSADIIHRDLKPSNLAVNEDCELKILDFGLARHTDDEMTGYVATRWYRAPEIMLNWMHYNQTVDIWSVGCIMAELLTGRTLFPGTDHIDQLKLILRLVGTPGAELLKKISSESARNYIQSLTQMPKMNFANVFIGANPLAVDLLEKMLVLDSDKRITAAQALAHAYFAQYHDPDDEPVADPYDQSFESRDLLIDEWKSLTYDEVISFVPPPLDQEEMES
GSK 3α, sequence (P49840 whole entry): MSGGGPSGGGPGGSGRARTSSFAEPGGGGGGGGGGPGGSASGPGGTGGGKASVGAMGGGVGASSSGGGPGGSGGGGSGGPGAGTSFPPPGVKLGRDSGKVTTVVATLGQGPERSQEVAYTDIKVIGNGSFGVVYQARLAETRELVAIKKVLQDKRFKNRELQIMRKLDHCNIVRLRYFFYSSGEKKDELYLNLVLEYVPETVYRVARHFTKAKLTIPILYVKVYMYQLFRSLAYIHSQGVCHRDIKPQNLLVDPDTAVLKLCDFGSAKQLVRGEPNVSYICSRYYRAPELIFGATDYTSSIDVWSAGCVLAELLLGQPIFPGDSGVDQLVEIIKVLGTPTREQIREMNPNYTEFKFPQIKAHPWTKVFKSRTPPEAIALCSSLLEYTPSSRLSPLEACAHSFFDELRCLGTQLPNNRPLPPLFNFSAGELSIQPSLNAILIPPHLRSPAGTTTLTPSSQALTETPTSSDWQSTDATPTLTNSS
c-Src, sequence (P12931 whole entry, looked up): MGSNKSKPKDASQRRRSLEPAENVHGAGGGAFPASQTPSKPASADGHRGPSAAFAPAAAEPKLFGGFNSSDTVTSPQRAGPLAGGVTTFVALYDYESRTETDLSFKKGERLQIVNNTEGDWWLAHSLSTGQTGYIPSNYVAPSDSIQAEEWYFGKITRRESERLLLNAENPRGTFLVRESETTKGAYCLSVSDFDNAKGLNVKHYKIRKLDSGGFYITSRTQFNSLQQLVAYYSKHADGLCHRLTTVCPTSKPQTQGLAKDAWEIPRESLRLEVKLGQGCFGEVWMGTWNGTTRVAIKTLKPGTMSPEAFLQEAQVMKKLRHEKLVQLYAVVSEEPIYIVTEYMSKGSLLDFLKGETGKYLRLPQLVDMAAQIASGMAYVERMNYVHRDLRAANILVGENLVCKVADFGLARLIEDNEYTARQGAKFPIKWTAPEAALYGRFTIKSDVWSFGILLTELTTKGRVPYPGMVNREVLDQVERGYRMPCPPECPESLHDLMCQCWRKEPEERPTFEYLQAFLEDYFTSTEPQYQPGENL

## COCCOCCOCCOc1cc(Nc2cc(Oc3ccc(NC(=O)Nc4cc(C(C)(C)C)cc(C(=O)NCCN5CCOCC5)c4OC)c4ccccc34)ccn2)cc(OC)c1 [Example 16, 5-(tert-Butyl)-2-methoxy-3-(3-(4-((2-((3-methoxy-5-(2-(2-(2-methoxyethoxy)ethoxy)ethoxy)-phenyl)amino)pyridin-4-yl)oxy)naphthalen-1-yl)ureido)-N-(2-morpholinoethyl)benzamide]
[1]
  IC50: 230 nM
c-Src
  IC50: 40 nM
Syk
  IC50: 93 nM
GSK 3α
  IC50: 5670 nM
PBMCs [2]
  IC50: 7.7 nM
PBMCs [3]
  IC50: 4.3 nM
d-U937 cells; test compound 1 μg/mL
  % β-catenin induction: 0.0%
d-U937 cells; test compound 5 μg/mL
  % β-catenin induction: −3.0%
d-U937 cells; test compound 10 μg/mL
  % β-catenin induction: −6.5%

## COCCOCCOCCOc1cc(Nc2cc(Oc3ccc(NC(=O)Nc4cc(C(C)(C)C)cc([S+](C)[O-])c4OC)c4ccccc34)ccn2)cc(OC)c1 (stereo not drawn) [Example 17, 1-(5-(tert-Butyl)-2-methoxy-3-(methylsulfinyl)phenyl)-3-(4-((2-((3-methoxy-5-(2-(2-(2-methoxyethoxy)ethoxy)ethoxy)phenyl)amino)pyridin-4-yl)oxy)naphthalen-1-yl)urea]
[1]
  IC50: 68 nM
c-Src
  IC50: 30 nM
Syk
  IC50: 134 nM
GSK 3α
  IC50: 10300 nM
PBMCs [2]
  IC50: 30.5 nM
PBMCs [3]
  IC50: 4.9 nM
d-U937 cells; test compound 1 μg/mL
  % β-catenin induction: −2.0%
d-U937 cells; test compound 5 μg/mL
  % β-catenin induction: −7.0%
d-U937 cells; test compound 10 μg/mL
  % β-catenin induction: −5.5%

## COc1c(CS(C)(=O)=O)cc(C(C)(C)C)cc1NC(=O)Nc1ccc(Oc2ccnc(Nc3ccccc3)c2)c2ccccc12 [Example 19, 1-(5-(tert-Butyl)-2-methoxy-3-((methylsulfonyl)methyl)phenyl)-3-(4-((2-(phenylamino)pyridin-4-yl)oxy)naphthalen-1-yl)urea]
[1]
  IC50: 208 nM
c-Src
  IC50: 145 nM
Syk
  IC50: 189 nM
GSK 3α
  IC50: > 16000 nM
PBMCs [2]
  IC50: 257 nM
PBMCs [3]
  IC50: 26.8 nM
d-U937 cells; test compound 1 μg/mL
  % β-catenin induction: 2.5%
d-U937 cells; test compound 5 μg/mL
  % β-catenin induction: 9.0%
d-U937 cells; test compound 10 μg/mL
  % β-catenin induction: 13.0%

## COc1cc(Nc2nccc(Oc3ccc(NC(=O)Nc4cc(C(C)(C)C)cc(OCP(C)(C)=O)c4OC)c4ccccc34)n2)cc(OC)c1 [Example 20, 1-(5-(tert-Butyl)-3-((dimethylphosphoryl)methoxy)-2-methoxyphenyl)-3-(4-((2-((3,5-dimethoxyphenyl)amino)pyrimidin-4-yl)oxy)naphthalen-1-yl)urea]
[1]
  IC50: 368 nM
c-Src
  IC50: 33 nM
Syk
  IC50: 188 nM
GSK 3α
  IC50: 2060 nM
PBMCs [2]
  IC50: 10.5 nM
PBMCs [3]
  IC50: 7.9 nM
d-U937 cells; test compound 1 μg/mL
  % β-catenin induction: 2.5%
d-U937 cells; test compound 5 μg/mL
  % β-catenin induction: 20.5%
d-U937 cells; test compound 10 μg/mL
  % β-catenin induction: 16.5%

## COc1c(CP(C)(C)=O)cc(C(C)(C)C)cc1NC(=O)Nc1ccc(Oc2ccnc(Nc3ccccc3)c2)c2ccccc12 [Example 24, 1-(5-(tert-Butyl)-3-((dimethylphosphoryl)methyl)-2-methoxyphenyl)-3-(4-((2-(phenylamino)-pyridin-4-yl)oxy)naphthalen-1-yl)urea]
[1]
  IC50: 220 nM
c-Src
  IC50: 168 nM
Syk
  IC50: 289 nM
GSK 3α
  IC50: 7450 nM
PBMCs [2]
  IC50: 276 nM
PBMCs [3]
  IC50: 64 nM
d-U937 cells; test compound 1 μg/mL
  % β-catenin induction: −3.0%
d-U937 cells; test compound 5 μg/mL
  % β-catenin induction: 13.0%
d-U937 cells; test compound 10 μg/mL
  % β-catenin induction: 16.5%

## COc1c(C[S+](C)[O-])cc(C(C)(C)C)cc1NC(=O)Nc1ccc(Oc2ccnc(Nc3ccccc3)c2)c2ccccc12 (stereo not drawn) [Example 25, 1-(5-(tert-Butyl)-2-methoxy-3-((methylsulfinyl)methyl)phenyl)-3-(4-((2-(phenylamino)pyridin-4-yl)oxy)naphthalen-1-yl)urea]
[1]
  IC50: 323 nM
c-Src
  IC50: 224 nM
Syk
  IC50: 724 nM
GSK 3α
  IC50: 9620 nM
PBMCs [2]
  IC50: 175 nM
PBMCs [3]
  IC50: 29.5 nM
d-U937 cells; test compound 1 μg/mL
  % β-catenin induction: 1.0%
d-U937 cells; test compound 5 μg/mL
  % β-catenin induction: 8.0%
d-U937 cells; test compound 10 μg/mL
  % β-catenin induction: 17.5%

## COc1c(NC(=O)Nc2ccc(Oc3ccnc(Nc4cc(C)cc(C)c4)c3)c3ccccc23)cc(C(C)(C)C)cc1P(C)(C)=O [Example 28, 1-(5-(tert-Butyl)-3-(dimethylphosphoryl)-2-methoxyphenyl)-3-(4-((2-((3,5-dimethylphenyl)-amino)pyridin-4-yl)oxy)naphthalen-1-yl)urea]
[1]
  IC50: 254 nM
c-Src
  IC50: 48 nM
Syk
  IC50: 157 nM
GSK 3α
  IC50: 8260 nM
PBMCs [2]
  IC50: 63.3 nM
PBMCs [3]
  IC50: 1.4 nM
d-U937 cells; test compound 1 μg/mL
  % β-catenin induction: 3.0%
d-U937 cells; test compound 5 μg/mL
  % β-catenin induction: 6.7%
d-U937 cells; test compound 10 μg/mL
  % β-catenin induction: 11.3%

## COc1cc(Nc2cc(Oc3ccc(NC(=O)Nc4cc(C(C)(C)C)cc(CC(N)=O)c4OC)c4ccccc34)ccn2)cc(OC)c1 [Example 30, 2-(5-(tert-Butyl)-3-(3-(4-((2-((3,5-dimethoxyphenyl)amino)pyridin-4-yl)oxy)naphthalen-1-yl)ureido)-2-methoxyphenyl)acetamide]
[1]
  IC50: 132 nM
c-Src
  IC50: 60 nM
Syk
  IC50: 708 nM
GSK 3α
  IC50: > 15400 nM
PBMCs [2]
  IC50: 94.5 nM
PBMCs [3]
  IC50: 6.4 nM
d-U937 cells; test compound 1 μg/mL
  % β-catenin induction: 6.5%
d-U937 cells; test compound 5 μg/mL
  % β-catenin induction: 23.5%
d-U937 cells; test compound 10 μg/mL
  % β-catenin induction: 1.0%

## COc1cccc(Nc2cc(Oc3ccc(NC(=O)Nc4cc(C(C)(C)C)cc(CC(N)=O)c4OC)c4ccccc34)ccn2)c1 [Example 33, 2-(5-(tert-Butyl)-2-methoxy-3-(3-(4-((2-((3-methoxyphenyl)amino)pyridin-4-yl)oxy)naphthalen-1-yl)ureido)phenyl)acetamide]
[1]
  IC50: 109 nM
c-Src
  IC50: 63 nM
Syk
  IC50: 519 nM
GSK 3α
  IC50: 10500 nM
PBMCs [2]
  IC50: 117 nM
PBMCs [3]
  IC50: 11 nM
d-U937 cells; test compound 1 μg/mL
  % β-catenin induction: −1.0%
d-U937 cells; test compound 5 μg/mL
  % β-catenin induction: 3.5%
d-U937 cells; test compound 10 μg/mL
  % β-catenin induction: 9.5%

## COc1c(CNC(C)=O)cc(C(C)(C)C)cc1NC(=O)Nc1ccc(Oc2ccnc(Nc3ccccc3)c2)c2ccccc12 [Example 35, N-(5-(tert-Butyl)-2-methoxy-3-(3-(4-((2-(phenylamino)pyridin-4-yl)oxy)naphthalen-1-yl)ureido)benzyl)acetamide]
[1]
  IC50: 294 nM
c-Src
  IC50: 112 nM
Syk
  IC50: 369 nM
GSK 3α
  IC50: > 11800 nM
PBMCs [2]
  IC50: 221 nM
PBMCs [3]
  IC50: 10.9 nM
d-U937 cells; test compound 1 μg/mL
  % β-catenin induction: 5.5%
d-U937 cells; test compound 5 μg/mL
  % β-catenin induction: 16.5%
d-U937 cells; test compound 10 μg/mL
  % β-catenin induction: 23.5%

## COc1cc(Nc2cc(Oc3ccc(NC(=O)Nc4cc(C(C)(C)C)cc(P(C)(C)=O)c4OC)c4ccccc34)ccn2)cc(C(N)=O)c1 [Example 37, 3-((4-((4-(3-(5-(tert-butyl)-3-(dimethylphosphoryl)-2-methoxyphenyl)ureido)-naphthalen-1-yl)oxy)pyridin-2-yl)amino)-5-methoxybenzamide]
[1]
  IC50: 62 nM
c-Src
  IC50: 32 nM
Syk
  IC50: 347 nM
GSK 3α
  IC50: 2160 nM
PBMCs [2]
  IC50: 48 nM
PBMCs [3]
  IC50: 0.7 nM
d-U937 cells; test compound 1 μg/mL
  % β-catenin induction: 2.0%
d-U937 cells; test compound 5 μg/mL
  % β-catenin induction: 15.5%
d-U937 cells; test compound 10 μg/mL
  % β-catenin induction: 25.5%

## COc1cc(Nc2cc(Oc3ccc(NC(=O)Nc4cc(C(C)(C)C)cc([S+](C)[O-])c4OC)c4ccccc34)ccn2)cc(OC)c1 (stereo not drawn) [Example 40, 1-(5-(tert-Butyl)-2-methoxy-3-(methylsulfinyl)phenyl)-3-(4-((2-((3,5-dimethoxyphenyl)amino)pyridin-4-yl)oxy)naphthalen-1-yl)urea]
[1]
  IC50: 302 nM
c-Src
  IC50: 78 nM
Syk
  IC50: 201 nM
GSK 3α
  IC50: > 15300 nM
PBMCs [2]
  IC50: 179 nM
PBMCs [3]
  IC50: 5.2 nM
d-U937 cells; test compound 1 μg/mL
  % β-catenin induction: −2.0%
d-U937 cells; test compound 5 μg/mL
  % β-catenin induction: −2.0%
d-U937 cells; test compound 10 μg/mL
  % β-catenin induction: −0.5%

## COc1cccc(Nc2cc(Oc3ccc(NC(=O)Nc4cc(C(C)(C)C)cc([S+](C)[O-])c4OC)c4ccccc34)ccn2)c1 (stereo not drawn) [Example 41, 1-(5-(tert-Butyl)-2-methoxy-3-(methylsulfinyl)phenyl)-3-(4-((2-((3-methoxyphenyl)amino)pyridin-4-yl)oxy)naphthalen-1-yl)urea]
[1]
  IC50: 179 nM
c-Src
  IC50: 72 nM
Syk
  IC50: 247 nM
GSK 3α
  IC50: 10200 nM
PBMCs [2]
  IC50: 184 nM
PBMCs [3]
  IC50: 6.9 nM
d-U937 cells; test compound 1 μg/mL
  % β-catenin induction: −1.0%
d-U937 cells; test compound 5 μg/mL
  % β-catenin induction: −1.5%
d-U937 cells; test compound 10 μg/mL
  % β-catenin induction: 1.5%
